In patent US7078437B2, “Apolipoprotein D degradation inhibitor” (Kao Corporation, priority 2003, dated 2006):

Tested on: apolipoprotein D
Experiment: Inhibitory effect against degradation of apolipoprotein D (human sweat concentrate treated with Brevibacterium epiderumidis cells, western blot)
Format: biochemical
Conditions: human sweat concentrate as apolipoprotein-D-containing sample; Brevibacterium epiderumidis cells as protease, about 10^8 cfu/mL; 37° C. for 24 hours; antibody-staining after SDS-PAGE
Description: Inhibitory effects of lauric acid and oleic acid on degradation of apolipoprotein D were studied using a human sweat concentrate as an apolipoprotein-D-containing sample and Brevibacterium epiderumidis cells as a protease.
(1) Preparation of Sweat Samples
The absorbent cotton balls were squeezed, whereby a solution (57.5 mL) was collected. The collected solution was filtered through a 0.45-μm filter and then concentrated by use of a MILLIPOR Centriprep YM-10.
Distilled water was added again to the concentrate, and the resultant solution was concentrated in a similar manner by use of a Centriprep YM-10, to thereby remove substances of low molecular weight. The product was employed as a sweat concentrate.
(2) 100 mM Tris-HCl buffer (0.03 mL), distilled water (0.02 mL), and each of lauric acid (Sigma) and oleic acid (Sigma) were added to an aliquot (0.04 mL) of the sweat concentrate prepared through the above method (1). […] Briefly, the cell-treated sweat concentrate was subjected to SDS polyacrylamide electrophoresis (SDS-PAGE) by use of a Ready Gel J (15% of separation gel concentration, Bio-Rad Laboratories, Inc.), and the thus-separated proteins were electrically transcribed from the gel onto a PVDF filter (Millipore Corporation, Immobilon transfer membrane). […]

SMILES | degradation of apolipoprotein D (percent residue of apolipoprotein D)
CCCCCCCC/C=C\CCCCCCCC(=O)O [oleic acid] | degradation of apolipoprotein D was suppressed
CCCCCCCCCCCC(=O)O [lauric acid] | degradation of apolipoprotein D was suppressed
